Earlier results on four compounds are cited in patent US20180110725A1, “COMPOSITIONS, METHODS AND KITS FOR THE SAFE INHALED DELIVERY OF TARGETED OPIOIDS FOR THE TREATMENT OF PAIN AND ADDICTION” (Somniferum Labs LLC, priority 2016, published 2018).

The conditions of data set [1]: in vivo.
Data set [2] concerns the target μ-1 opioid receptor (Homo sapiens, UniProt P35372). The conditions noted are these: Wittwer and Kern, 2006.
The conditions of data set [3]: room temperature.

Sequence of μ-1 opioid receptor (P35372 whole entry): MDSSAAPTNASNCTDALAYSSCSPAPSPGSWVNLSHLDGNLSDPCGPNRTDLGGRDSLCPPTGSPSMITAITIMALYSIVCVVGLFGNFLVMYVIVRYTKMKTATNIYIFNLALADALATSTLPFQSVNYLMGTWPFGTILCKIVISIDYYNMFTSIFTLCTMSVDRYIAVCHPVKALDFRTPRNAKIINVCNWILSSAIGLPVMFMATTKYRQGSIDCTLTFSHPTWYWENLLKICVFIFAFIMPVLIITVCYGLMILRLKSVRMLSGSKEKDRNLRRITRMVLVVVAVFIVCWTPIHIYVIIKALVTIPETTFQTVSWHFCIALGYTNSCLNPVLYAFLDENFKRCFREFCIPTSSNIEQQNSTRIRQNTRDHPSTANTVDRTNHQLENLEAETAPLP

Turning to morphine-6-glucuronide sulfate, the duration of activity result in data set [1] is “relatively long duration of activity”. As to `CN1CC[C@]23c4c5ccc(O)c4O[C@H]2[C@@H](O[C@@H]2O[C@H](C(=O)O)[C@@H](O)[C@H](O)[C@H]2O)C=C[C@H]3[C@H]1C5` [Morphine-6-glucuronide], the “potency relative to morphine” value in data set [2] is on record as “higher potency than morphine”.

Take `Br.CN1CC[C@]23c4c5ccc(O)c4O[C@H]2[C@@H](O[C@@H]2O[C@H](C(=O)O)[C@@H](O)[C@H](O)[C@H]2O)C=C[C@H]3[C@H]1C5` [Morphine-6 glucuronide bromide]: in data set [3], the “storage time with little or no degradation” value is listed as “up to 6 years”. As to `CC(=O)O.CN1CCC23c4c5ccc(O)c4OC2C(OC2OC(C(=O)O)C(O)C(O)C2O)C=CC3C1C5` (stereo not shown) [morphine-6-glucuronide acetate], the duration of activity result in data set [1] is “relatively long duration of activity”.
